In patent publication US8569327B2, “Phenanthroindolizidine derivative and NFκB inhibitor containing same as active ingredient” (Kabushiki Kaisha Yakult Honsha, priority 2008, dated 2013):

Legend:
NFκB = test: Inhibitory action on the NFκB activity, luciferase assay in SW480/NRE-Luc cells; type: cell-based, human; conditions: for IC50: Homo sapiens, SW480, read-out: NFκB inhibitory activity IC50; for NFκB inhibitory activity IC50: SW480/NRE-Luc cells, compound 1 h then 50 ng/mL TNFα 4 h, luciferase
Source text: (§1) The action of the phenanthroindolizidine alkaloid compound of the present invention on the NFκB activity was studied using a luciferase assay. Human colon cancer SW480 cells were transfected with pNFκB-Luc Plasmid (Stratagene), which is a reporter vector in which a five-time tandem repeat of the NFκB responsive element (NRE) is integrated into the upstream of the luciferase gene, using Lipofectamine 2000 (Invitrogen Corporation) in accordance with the attached operating procedure. Subsequently, the cells were cultured in an RPMI1640 medium containing 10% FBS, 100 U/mL penicillin, 100 μg/mL streptomycin, and 0.5 mg/mL G418 to produce SW480 cells having the luciferase gene, the expression of which is regulated by NRE, stably introduced therein (SW480/NRE-Luc cells). Likewise, SW480 cells were transfected with pGL3-Control Vector (Promega Corporation), which is a reporter vector in which the SV40 promoter is integrated into the upstream of the luciferase gene, to produce SW480 cells having the luciferase gene, the expression of which is regulated by the SV40 promoter, stably introduced therein (SW480/SV40-Luc cells). The SW480/NRE-Luc cells or the SW480/SV40-Luc cells were suspended in an RPMI1640 medium containing 10% FBS, 100 U/mL penicillin, and 100 μg/mL streptomycin (10% FBS/RPMI1640), and then seeded in a 96-well microplate, followed by culturing under conditions of 5% CO2 and at 37° C. (5000 cells/well). After an overnight culture, the compound of the present invention was added, followed by culturing for one hour. Further, 50 ng/mL TNFα (Sigma-Aldrich Corporation) was added, followed by culturing for four hours. Subsequently, a Steady-Glo Luciferase Assay reagent (Promega Corporation) was added, and the luminescent intensity was detected by SpectraMax M5e (Molecular Devices, Inc.) to measure the intracellular luciferase activity. It is to be noted that the action of the compound of the present invention on the NFκB activity or the SV40 promoter activity was shown as IC50 values (the concentration of a test compound needed for 50% inhibition of the induction of the luciferase expression).

SV40 promoter = SV40 promoter activity, luciferase assay in SW480/SV40-Luc cells; type: cell-based, human; conditions: for IC50: Homo sapiens, SW480, read-out: SV40 promoter inhibitory activity IC50; for SV40 promoter inhibitory activity IC50: SW480/SV40-Luc cells, luciferase
Source text: as §1

[1] = test system: human colon cancer SW480 cells; test: Inhibitory action on the proliferation of SW480 cells; type: cell-based; conditions: 48 hours, TetraColor ONE; for IC50: Homo sapiens, SW480
Method: (§2) The action of the phenanthroindolizidine alkaloid compound of the present invention on the proliferation of human colon cancer SW480 cells, HT-29 cells, and human non-small cell lung cancer A549 cells was studied. The SW480 cells were suspended in a 10% FBS/RPMI1640 and then seeded in a 96-well microplate, followed by culturing in 5% CO2 at 37° C. (2000 cells/well). The A549 cells and the HT-29 cells were each suspended in a DMEM medium containing 10% FBS, 100 U/mL penicillin, and 100 μg/mL streptomycin (10% FBS/DMEM) and a DMEM F-12 HAM medium containing 10% FBS, 100 U/mL penicillin, and 100 μg/mL streptomycin (10% FBS/DMEM F12 HAM), and then seeded in 96-well microplates, followed by culturing in 5% CO2 at 37° C. (1000 cells/well). After an overnight culture, the compound of the present invention was added, followed by further culturing for 48 hours (SW480 cells) and 96 hours (A549 cells and HT-29 cells). After culturing, the number of viable cells was counted using TetraColor ONE (Seikagaku Corporation) in accordance with the attached operating procedure. The results were expressed as the concentration of a test compound needed for 50% inhibition of the proliferation of the cells (IC50).

[2] = test system: human colon cancer HT-29 cells; test: Inhibitory action on the proliferation of HT-29 cells; type: cell-based; conditions: 96 hours, TetraColor ONE; for IC50: Homo sapiens, HT-29
Method: as §2

[3] = test system: human non-small cell lung cancer A549 cells; test: Inhibitory action on the proliferation of A549 cells; type: cell-based; conditions: 96 hours, TetraColor ONE; for IC50: Homo sapiens, A549
Method: as §2

| SMILES | IC50 (NFκB) [ng/mL] | IC50 (SV40 promoter) [ng/mL] | IC50 [1] [ng/mL] | IC50 [2] [ng/mL] | IC50 [3] [ng/mL] | NFκB inhibitory activity IC50 (NFκB) [ng/mL] | SV40 promoter inhibitory activity IC50 (SV40 promoter) [ng/mL] | SW480 proliferation inhibitory action IC50 [1] [ng/mL] | HT-29 proliferation inhibitory action IC50 [2] [ng/mL] | A549 proliferation inhibitory action IC50 [3] [ng/mL] |
| --- | --- | --- | --- | --- | --- | --- | --- | --- | --- | --- |
| COc1cc2c3c(c4ccc(NC(=O)OCc5ccccc5)cc4c2cc1OC)[C@H](O)[C@@H]1CCCN1C3.Cl [Compound 26, ((12aS,13S)-13-hydroxy-6,7-dimethoxy-9,10,11,12,12a,13-hexahydro-9a-aza-cyclopenta[b]triphenylene-3-yl)-carbamic acid benzyl ester hydrochloride] | 19.9 | > 1000 | 37.3 | 6.7 | 8.8 | – | – | – | – | – |
| COc1cc2c3c(c4cccc(O)c4c2cc1OC)[C@H](O)[C@@H]1CCCN1C3.Cl [Compound 30, (12aS,13S)-6,7-dimethoxy-9,10,11,12,12a,13-hexahydro-9a-aza-cyclopenta[b]triphenylene-4,13-diol hydrochloride] | 0.017 | > 1000 | 0.45 | 30.5 | 1.2 | – | – | – | – | – |
| COc1cc2c3c(c4ccc(OC(=O)C(C)(C)C)cc4c2cc1OC)C[C@@H]1CCCN1C3.Cl [Compound 35, 2,2-dimethyl-propionic acid(S)-6,7-dimethoxy-9,10,11,12,12a,13-hexahydro-9a-aza-cyclopenta[b]triphenylene-3-yl ester hydrochloride] | – | – | – | – | – | 2.4 | >1000 | 4.1 | 3.7 | 1.2 |
| CCc1ccc2c3c(c4cc(OC)c(OC)cc4c2c1)CN1CCC[C@H]1C3.Cl [Compound 41, (S)-3-ethyl-6,7-dimethoxy-9,10,11,12,12a,13-hexahydro-9a-aza-cyclopenta[b]triphenylene hydrochloride] | 281 | > 10000 | 391 | 167 | 112 | – | – | – | – | – |
| COc1cc2c3c(c4ccc(NC(=O)OCC(C)C)cc4c2cc1OC)C[C@@H]1CCCN1C3.Cl [Compound 42, ((S)-6,7-dimethoxy-9,10,11,12,12a,13-hexahydro-9a-aza-cyclopenta[b]triphenylene-3-yl)-carbamic acid isobutyl ester hydrochloride] | 117 | > 10000 | 96.3 | 19 | 27 | – | – | – | – | – |
| COc1cc2c3c(c4ccc(OC(=O)c5cccnc5)cc4c2cc1OC)C[C@@H]1CCCN1C3.CS(=O)(=O)O [Compound 47, nicotinic acid(S)-6,7-dimethoxy-9,10,11,12,12a,13-hexahydro-9a-aza-cyclopenta[b]triphenylene-3-yl ester methanesulfonate] | – | – | – | – | – | 0.42 | >1000 | 0.38 | 1.9 | 1.1 |
| COc1cc2c3c(c4ccc(OC(=O)C(C)(C)C)cc4c2cc1OC)C[C@@H]1CCCN1C3.CS(=O)(=O)O [Compound 48, 2,2-dimethyl-propionic acid(S)-6,7-dimethoxy-9,10,11,12,12a,13-hexahydro-9a-aza-cyclopenta[b]triphenylene-3-yl ester methanesulfonate] | – | – | – | – | – | 0.40 | >1000 | 0.58 | 2.0 | 1.2 |
| CCCCC(=O)Oc1ccc2c3c(c4cc(OC)c(OC)cc4c2c1)CN1CCC[C@H]1C3.CS(=O)(=O)O [Compound 49, pentanoic acid(S)-6,7-dimethoxy-9,10,11,12,12a,13-hexahydro-9a-aza-cyclopenta[b]triphenylene-3-yl ester methanesulfonate] | – | – | – | – | – | 0.41 | >1000 | 0.62 | 2.0 | 1.1 |
| CCCC(=O)Oc1ccc2c3c(c4cc(OC)c(OC)cc4c2c1)CN1CCC[C@H]1C3.CS(=O)(=O)O [Compound 50, butyric acid(S)-6,7-dimethoxy-9,10,11,12,12a,13-hexahydro-9a-aza-cyclopenta[b]triphenylene-3-yl ester methanesulfonate] | – | – | – | – | – | 0.34 | >100 | 0.54 | 1.5 | 0.86 |
| CCC(=O)Oc1ccc2c3c(c4cc(OC)c(OC)cc4c2c1)CN1CCC[C@H]1C3.CS(=O)(=O)O [Compound 51, propionic acid(S)-6,7-dimethoxy-9,10,11,12,12a,13-hexahydro-9a-aza-cyclopenta[b]triphenylene-3-yl ester methanesulfonate] | – | – | – | – | – | 0.80 | >100 | 1.1 | 1.6 | 0.78 |
| COc1cc2c3c(c4ccc(OC(=O)c5ccco5)cc4c2cc1OC)C[C@@H]1CCCN1C3.CS(=O)(=O)O [Compound 52, furan-2-carboxylic acid(S)-6,7-dimethoxy-9,10,11,12,12a,13-hexahydro-9a-aza-cyclopenta[b]triphenylene-3-yl ester methanesulfonate] | – | – | – | – | – | 0.61 | >1000 | 0.51 | 2.0 | 1.3 |
| COc1cc2c3c(c4ccccc4c2cc1OC)C[C@@H]1CCCN1C3.CS(=O)(=O)O [Compound 53, (S)-6,7-dimethoxy-9,10,11,12,12a,13-hexahydro-9a-aza-cyclopenta[b]triphenylene methanesulfonate] | 19.1 | > 10000 | 32.9 | 58.5 | 28.9 | – | – | – | – | – |
| COc1cc2c3c(c4ccc(N)cc4c2cc1OC)C[C@@H]1CCCN1C3.CS(=O)(=O)O [Compound 54, (S)-3-amino-6,7-dimethoxy-9,10,11,12,12a,13-hexahydro-9a-aza-cyclopenta[b]triphenylene methanesulfonate] | 2 | > 10 | 3.9 | 4.15 | 2.8 | – | – | – | – | – |
| COc1cc2c3c(c4ccc(NC(=O)OCC(C)C)cc4c2cc1OC)C[C@@H]1CCCN1C3.CS(=O)(=O)O [Compound 55, ((S)-6,7-dimethoxy-9,10,11,12,12a,13-hexahydro-9a-aza-cyclopenta[b]triphenylene-3-yl)-carbamic acid isobutyl ester methanesulfonate] | 0.5 | > 10000 | 0.76 | 46 | 33.7 | – | – | – | – | – |
| COc1cc2c3c(c4ccc(N5CCCC5)cc4c2cc1OC)C[C@@H]1CCCN1C3.CS(=O)(=O)O [Compound 57, (S)-6,7-dimethoxy-3-pyrrolidine-9,10,11,12,12a,13-hexahydro-9a-aza-cyclopenta[b]triphenylene methanesulfonate] | – | – | – | – | – | 0.67 | >10000 | 1.0 | 74.1 | 61.1 |
